Measured values reported in patent US9517224B2, “Methods of treating patients infected with HIV and HTLV” (THE UNITED STATES OF AMERICA, AS REPRESENTED BY THE …, priority 2012, dated 2016).

Test system: PBMC's from normal volunteers
Assay: mRNA for IL-4, INF-gamma, TNF-alpha and CD69 in PBMCs from normal volunteers
Assay type: cell-based

Substance: ionomycine
- CD69 mRNA, relative fold difference versus untreated control: 1.639 fold
- IFN-γ mRNA, relative fold difference versus untreated control: 1.608 fold
- IL-4 mRNA, relative fold difference versus untreated control: 0.716 fold
- TNF-α mRNA, relative fold difference versus untreated control: 0.657 fold
